# Data: EP0182152B1, “Antitumor antibiotics (LL-E33288 Complex)” (AMERICAN CYANAMID COMPANY, priority 1984, dated 1986)
# What was measured:
# [1] = test system: lymphocytic leukemia P388; experiment: Lymphocytic Leukemia P388 Test; format: in vivo, BDF1 mice; details: Table IX
# Text: (§1) Certain in vivo testing systems and protocols have been developed by the National Cancer Institute for testing compounds to determine their suitability as anti-neoplastic agents. These have been reported in "Cancer Chemotherapy Reports", Part III, Vol. 3, No. 2 (1972), Geran, et al. These protocols have established standardized screening tests which are generally followed in the field of testing for antitumor agents. Of these systems, lymphocytic leukemia P388, melanotic melanoma B16, L1210 leukemia and colon 26 adenocarcinoma are particularly significant to the present invention. These neoplasms are utilized for testing as transplantable tumors in mice. Generally, significant anti-tumor activity, shown in these protocols by a percentage increase of mean survival times of the treated animals (T) over the control animals (C), is indicative of similar results in human leukemias and solid tumors.
# The animals used were BDF1 mice, all of one sex, weighing a minimum of 17 g and all within a 3 g weight range. There were 5 or 6 mice per test group. The tumor transplant was by intraperitoneal injection of 0.5 ml of dilute ascitic fluid containing 10^6 cells of lymphocytic leukemia P388. LL-E33288 antibiotics were tested in the P388 system both as the individual β1-Br and […] components and as a complex of all components (Bromo-complex). The test compounds were administered intrapertioneally at a volume of 0.5 ml in 0.2% Klucel in normal saline on days 1, 5 and 9 (relative to tumor inoculation) at the indicated doses. The mice were weighed and the survivors recorded on a regular basis for 30 days. The median survival time and the ratio of survival time for treated (T)/control (C) animals were calculated. The positive control compound was Cisplatin given as an intraperitioneal injection in 0.5 ml of 0.2% Klucel on days 1, 5 and 9 at the indicated doses.
# If T/C X 100 (%) is 125 or over, the tested compound is considered to have significant anti-tumor activity.
# (§2) In the same manner, the following iodo-components were tested for antineoplastic activity.
# [2] = test system: lymphocytic leukemia L1210; experiment: Lymphocytic Leukemia L1210 Test; format: in vivo, BDF1 mice; details: Table XI, control 9 days
# Text: as §1
# The animals used were BDF1 mice, all of one sex, weighing a minimum of 17 g and all within a 3 g weight range. There were 6 mice in each test group and 18 in control groups. The tumor transplant was by intraperitoneal injection of 0.5 ml of lymphocytic leukemia L1210 at a concentration of 10^5 cells per mouse. LL-E33288 antibiotics were tested in the L1210 system both as the individual β1-Br component and as a complex of all components (Bromo-complex). The test compounds were administered on days 1, 5 and 9 or days 1 through 9 (relative to tumor inoculation) at various doses. The mice were weighed and survivors recorded on a regular basis for 30 days. The median survival time and the ratio of survival time for treated (T)/control (C) animals were calculated. The positive control compound was 1,4-dihydroxy-5,8-bis[[2-(2-hydroxyethylamino)ethyl]amino]anthraquinone dihydrochloride or Cisplatin given intraperitoneally at the indicated dose. If T/C X 100 (%) is 125 or over, the tested compound is considered to have significant anti-tumor activity.
# as §2
# Colon 26 tumor = experiment: Colon 26 Adenocarcinoma Test; format: in vivo, CD2F1 female mice; details: Table XII, control 18.5 days
# Text: as §1
# The animals used were CD2F1 female mice weighing a minimum of 17 g and all within a 3 g weight range. There were 5 or 6 mice per test group with three groups of 5 or 6 animals used as untreated controls for each test. The tumor implant was by intraperitoneal (or subcutaneous) injection of 0.5 ml of a 2% Colon 26 tumor brei in Eagle's MEM medium containing antibiotics. LL-E33288 antibiotics were tested in the Colon 26 system as a complex (Bromo-complex) of all components. The test compounds were administered intraperitoneally on days 1, 5 and 9 (relative to tumor implant doses). The mice were weighed and deaths recorded on a regular basis for 30 days. The median survival times for treated (T)/control (C) animals were calculated. The positive control compound was Cisplatin. If T/C X 100 (%) is 130 or over, the tested compound is considered to have significant anti-tumor activity.
# as §2
# melanotic melanoma B16 = experiment: Melanotic Melanoma B16 Test; format: in vivo, BDF1 mice; details: Table X, control value not given
# Text: as §1
# The animals used were BDF1 mice, all of the same sex, weighing a minimum of 17 g and all within a 3 g weight range. There are normally 6 animals per test group. A 1 g portion of melanotic melanoma β16 tumor was homogenized in 10 ml of cold balanced salt solution and a 0.5 ml aliquot of the homogenate was implanted intraperitoneally into each of the test mice. LL-E33288 antibiotics were tested in the β16 system both as the individual β1-Br and γ1-Br components and as a complex of all components (Bromo-complex). The test compounds were administered intraperitioneally on days 1 through 9 (relative to tumor inoculation) at various doses. The mice were weighed and survivors recorded on a regular basis for 60 days. The median survival time and the ratio of survival time for treated (T)/control (C) animals were calculated. The positive control compounds were Cisplatin or Adriamycin. The results of this test appear in Table V. If T/C X 100 (%) is 125 or over, the tested compound is considered to have significant anti-tumor activity.
# as §2
# [3] = Test 1, dose .00015 mg/kg, control 13 days
# [4] = Test 1, dose .0003 mg/kg, control 13 days
# [5] = Test 1, dose .0006 mg/kg, control 13 days
# [6] = Test 1, dose .00125 mg/kg, control 13 days
# [7] = Test 1, dose .0025 mg/kg, control 13 days
# [8] = Test 1, dose .005 mg/kg, control 13 days
# [9] = Test 2, dose - .00125 mg/kg, control 11 days
# [10] = Test 2, dose .00015 mg/kg, control 11 days
# [11] = Test 2, dose .0003 mg/kg, control 11 days
# [12] = Test 2, dose .0006 mg/kg, control 11 days
# [13] = Test 2, dose .0025 mg/kg, control 11 days
# [14] = Test 2, dose .005 mg/kg, control 11 days
# [15] = Test 2, dose .01 mg/kg, control 11 days
smiles,measurement,setting,value
CCN[C@H]1CO[C@@H](O[C@H]2[C@H](O[C@H]3C#CC=CC#C[C@@]4(O)CC(=O)C(NC(=O)OC)=C3/C4=C\CSSSC)O[C@H](C)[C@@H](NO[C@H]3C[C@H](O)[C@H](SC(=O)c4c(C)c(I)c(O[C@@H]5O[C@@H](C)[C@H](O)[C@@H](OC)[C@H]5O)c(OC)c4OC)[C@@H](C)O3)[C@@H]2O)C[C@@H]1OC (stereo in doubt) [LL-E33288γ1-I],Median Survival,[1]; [3],15 days
same,T/C x 100,[1]; [3],115%
same,Median Survival,[1]; [4],15.5 days
same,T/C x 100,[1]; [4],119%
same,Median Survival,[1]; [5],18 days
same,T/C x 100,[1]; [5],138%
same,Median Survival,[1]; [6],18.5 days
same,T/C x 100,[1]; [6],142%
same,Median Survival,[1]; [7],22 days
same,T/C x 100,[1]; [7],169%
same,Median Survival,[1]; [8],>25.5 days
same,T/C x 100,[1]; [8],>196%
same,Median Survival,[1]; [9],18.5 days
same,T/C x 100,[1]; [9],168%
same,Median Survival,[1]; [10],14 days
same,T/C x 100,[1]; [10],127%
same,Median Survival,[1]; [11],14 days
same,T/C x 100,[1]; [11],127%
same,Median Survival,[1]; [12],16 days
same,T/C x 100,[1]; [12],145%
same,Median Survival,[1]; [13],22.5 days
same,T/C x 100,[1]; [13],205%
same,Median Survival,[1]; [14],18 days
same,T/C x 100,[1]; [14],164%
same,Median Survival,[1]; [15],11 days
same,T/C x 100,[1]; [15],100%
same,Median Survival,[2]; dose .0006 mg/kg,10 days
same,T/C x 100,[2]; dose .0006 mg/kg,111%
same,Median Survival,[2]; dose .0012 mg/kg,10.5 days
same,T/C x 100,[2]; dose .0012 mg/kg,117%
same,Median Survival,[2]; dose .0025 mg/kg,11 days
same,T/C x 100,[2]; dose .0025 mg/kg,122%
same,Median Survival,[2]; dose .005 mg/kg,14 days
same,T/C x 100,[2]; dose .005 mg/kg,156%
same,Median Survival,[2]; dose .01 mg/kg,8 days
same,T/C x 100,[2]; dose .01 mg/kg,89%
same,Median Survival,"Colon 26 tumor; dose ,0006 mg/kg",23.5 days
same,T/C x 100,"Colon 26 tumor; dose ,0006 mg/kg",127%
same,Median Survival,Colon 26 tumor; dose .00007 mg/kg,17 days
same,T/C x 100,Colon 26 tumor; dose .00007 mg/kg,92%
same,Median Survival,Colon 26 tumor; dose .00015 mg/kg,17.5 days
same,T/C x 100,Colon 26 tumor; dose .00015 mg/kg,95%
same,Median Survival,Colon 26 tumor; dose .0003 mg/kg,20 days
same,T/C x 100,Colon 26 tumor; dose .0003 mg/kg,108%
same,Median Survival,Colon 26 tumor; dose .00125 mg/kg,22.5 days
same,T/C x 100,Colon 26 tumor; dose .00125 mg/kg,122%
same,Median Survival,Colon 26 tumor; dose .0025 mg/kg,27 days
same,T/C x 100,Colon 26 tumor; dose .0025 mg/kg,146%
same,Median Survival,Colon 26 tumor; dose .005 mg/kg,25.5 days
same,T/C x 100,Colon 26 tumor; dose .005 mg/kg,138%
same,Median Survival,Colon 26 tumor; dose .01 mg/kg,11 days
same,T/C x 100,Colon 26 tumor; dose .01 mg/kg,59%
same,Median Survival,melanotic melanoma B16; dose .00007 mg/kg,30.5 days
same,T/C x 100,melanotic melanoma B16; dose .00007 mg/kg,179%
same,Median Survival,melanotic melanoma B16; dose .00015 mg/kg,33.5 days
same,T/C x 100,melanotic melanoma B16; dose .00015 mg/kg,197%
same,Median Survival,melanotic melanoma B16; dose .0003 mg/kg,35.5 days
same,T/C x 100,melanotic melanoma B16; dose .0003 mg/kg,209%
same,Median Survival,melanotic melanoma B16; dose .0006 mg/kg,42.5 days
same,T/C x 100,melanotic melanoma B16; dose .0006 mg/kg,250%
same,Median Survival,melanotic melanoma B16; dose .00125 mg/kg,27 days
same,T/C x 100,melanotic melanoma B16; dose .00125 mg/kg,159%
same,Median Survival,melanotic melanoma B16; dose .0025 mg/kg,26.5 days
same,T/C x 100,melanotic melanoma B16; dose .0025 mg/kg,156%
